Values after ≈ are worked out from the molar mass of the structure shown.
What was measured:
Test in all cases: ≥ marks a high value that may be exact or a test limit, other limits are often not marked, values filed in µg/mL are converted to µM
[1] = tested on: Escherichia coli ATCC 25922
[2] = tested on: Staphylococcus aureus NCTC 8325
[3] = tested on: Candida albicans ATCC 90028
[4] = tested on: Pseudomonas aeruginosa Ps4
Micrococcus luteus = tested on: Micrococcus luteus
[5] = tested on: Micrococcus luteus ATCC 9341
Streptococcus mutans = tested on: Streptococcus mutans
[6] = tested on: Enterococcus faecalis ATCC 29212
[7] = tested on: Streptococcus pyogenes ATCC 19615
Bacillus subtilis = tested on: Bacillus subtilis
[8] = tested on: Staphylococcus aureus ATCC 25923
[9] = tested on: Pseudomonas aeruginosa ATCC 27853
Escherichia coli = tested on: Escherichia coli
[10] = tested on: Salmonella enterica subsp. enterica serovar Typhimurium ATCC 14028
[11] = tested on: Klebsiella pneumoniae ATCC 13883

Q: CC[C@H](C)[C@H](NC(=O)[C@H](CCCCN)NC(=O)[C@H](C)NC(=O)[C@H](CC(C)C)NC(=O)[C@H](CC(=O)O)NC(=O)[C@@H](NC(=O)[C@H](C)N)C(C)C)C(=O)N[C@@H](C)C(=O)N[C@@H](CC(N)=O)C(=O)N[C@@H](CCCCN)C(=O)N[C@H](C(=O)N[C@@H](CC(C)C)C(=O)N[C@@H](CO)C(=O)N[C@@H](CO)C(=O)N[C@@H](CC(C)C)C(=O)N[C@@H](Cc1ccccc1)C(N)=O)C(C)C [AVDLAKIANKVLSSLF] was tested. Which MIC [1] did it give?
A: The MIC was 37.5 µM (≈ 63.3 µg/mL).

Q: What about the MIC [2] of the same molecule?
A: The MIC was at least 150 µM.

Q: How did the MIC [1] turn out when CC[C@H](C)[C@H](NC(=O)[C@H](CCCCN)NC(=O)[C@H](CCSC)NC(=O)[C@H](CC(C)C)NC(=O)CNC(=O)CNC(=O)[C@H](CC(C)C)NC(=O)[C@@H](N)Cc1ccccc1)C(=O)N[C@H](C(=O)N1CCC[C@H]1C(=O)N[C@@H](C)C(=O)N[C@@H](C)C(=O)N[C@@H](Cc1ccccc1)C(=O)N[C@H]1CSSC[C@@H](C(=O)O)NC(=O)[C@H](CCCCN)NC(=O)[C@H](CCCCN)NC(=O)[C@H]([C@@H](C)O)NC(=O)[C@H](C(C)C)NC(=O)[C@H](C)NC1=O)[C@@H](C)CC [FLGGLMKIIPAAFCAVTKKC] was run?
A: Its MIC is 9 µM (≈ 19 µg/mL).

Q: What about the MIC [2] of the same molecule?
A: The MIC was 18 µM (≈ 38 µg/mL).

Q: And the MIC [3]?
A: Its MIC is at least 70 µM.

Q: For CC[C@H](C)[C@H](NC(=O)[C@H](CC(N)=O)NC(=O)[C@H](CCCN=C(N)N)NC(=O)[C@H](CCC(N)=O)NC(=O)[C@H](Cc1c[nH]c2ccccc12)NC(=O)[C@@H](N)Cc1ccccc1)C(=O)N[C@@H](CCCN=C(N)N)C(=O)N[C@@H](CO)C(=O)N[C@H](C(=O)N[C@@H](CCCN=C(N)N)C(N)=O)C(C)C [FWQRNIRSVR], which MIC [4] is on record?
A: Its MIC is at least 184 µM.

Q: CC[C@H](C)[C@H](NC(=O)[C@H](Cc1c[nH]c2ccccc12)NC(=O)[C@H](CC(N)=O)NC(=O)[C@H](CCCN=C(N)N)NC(=O)[C@H](CCC(N)=O)NC(=O)[C@H](Cc1c[nH]c2ccccc12)NC(=O)[C@@H](N)Cc1ccccc1)C(=O)N[C@@H](CCCN=C(N)N)C(=O)N[C@@H](CCCN=C(N)N)C(N)=O [FWQRNWIRR] was tested. Which MIC [4] did it give?
A: The MIC was at least 184 µM.

Q: With CC[C@H](C)[C@H](NC(=O)[C@H](CC(N)=O)NC(=O)[C@H](CO)NC(=O)[C@H](CCC(N)=O)NC(=O)[C@H](Cc1c[nH]c2ccccc12)NC(=O)[C@@H](N)Cc1ccccc1)C(=O)N[C@@H](CCCN=C(N)N)C(=O)N[C@@H](CCCCN)C(=O)N[C@H](C(=O)N[C@@H](CCCN=C(N)N)C(N)=O)C(C)C [FWQSNIRKVR] as the molecule, how does the MIC [4] read?
A: The MIC was at least 187 µM.

Q: CC[C@H](C)[C@H](NC(=O)[C@H](CCCN=C(N)N)NC(=O)[C@H](Cc1c[nH]c2ccccc12)NC(=O)[C@H](CCCN=C(N)N)NC(=O)[C@H](Cc1c[nH]c2ccccc12)NC(=O)[C@@H](N)Cc1ccccc1)C(=O)N[C@@H](Cc1c[nH]c2ccccc12)C(=O)N[C@@H](CCCN=C(N)N)C(N)=O [FWRWRIWR] was tested. Which MIC [4] did it give?
A: The MIC was 23.9 µM (≈ 31.2 µg/mL).

Q: Which MIC [4] does the source give for CC[C@H](C)[C@H](NC(=O)[C@H](CC(N)=O)NC(=O)[C@H](CCCN=C(N)N)NC(=O)[C@H](CCC(N)=O)NC(=O)[C@H](Cc1ccc(O)cc1)NC(=O)[C@@H](N)Cc1ccccc1)C(=O)N[C@@H](CCCN=C(N)N)C(=O)N[C@@H](CCCCN)C(=O)N[C@H](C(=O)N[C@@H](CCCN=C(N)N)C(N)=O)C(C)C [FYQRNIRKVR] here?
A: Its MIC is at least 181 µM.

Q: Which results are given for CC[C@H](C)[C@H](NC(=O)[C@H](CCCCN)NC(=O)[C@H](CC(C)C)NC(=O)[C@H](CC(C)C)NC(=O)[C@@H]1CCCN1C(=O)CNC(=O)[C@H](CC(C)C)NC(=O)[C@H](CC(C)C)NC(=O)CN)C(=O)N[C@@H](C)C(=O)N[C@@H](C)C(=O)N[C@@H](CCCCN)C(=O)N[C@H](C(=O)NCC(=O)N[C@@H](CO)C(=O)N[C@@H](CC(N)=O)C(=O)N[C@@H](CC(C)C)C(=O)N[C@@H](CC(C)C)C(=O)O)C(C)C [GLLGPLLKIAAKVGSNLL]?
A: MIC [1]: 60 µM (≈ 107 µg/mL); MIC [2]: ≥ 130 µM; MIC [3]: ≥ 200 µM

Q: For CC[C@H](C)[C@H](NC(=O)[C@H](CO)NC(=O)[C@H](CO)NC(=O)[C@@H](NC(=O)[C@H](CC(C)C)NC(=O)CN)C(C)C)C(=O)NCC(=O)N[C@@H](CCCN=C(N)N)C(=O)N[C@@H](C)C(=O)N[C@@H](CC(C)C)C(=O)NCC(=O)NCC(=O)N[C@@H](CC(C)C)C(=O)N[C@@H](CC(C)C)C(=O)N[C@@H](C)C(=O)N[C@@H](CC(=O)O)C(=O)N[C@H](C(=O)N[C@H](C(=O)N[C@@H](CCCCN)C(=O)N[C@@H](CO)C(=O)N[C@@H](CCCCN)C(=O)N[C@@H](CCC(=O)O)C(=O)N[C@@H](CCC(N)=O)C(=O)N1CCC[C@H]1C(=O)N[C@@H](C)C(=O)O)C(C)C)C(C)C [GLVSSIGRALGGLLADVVKSKEQPA], which MIC (Micrococcus luteus) is on record?
A: Its MIC is 20.3 µM (≈ 50 µg/mL).

Q: With CSCC[C@H](NC(=O)CNC(=O)CNC(=O)[C@H](CCCCN)NC(=O)[C@H](C)NC(=O)[C@H](Cc1ccccc1)NC(=O)[C@H](CCCCN)NC(=O)[C@H](CCCCN)NC(=O)[C@H](CC(C)C)NC(=O)[C@H](C)NC(=O)[C@H](CC(=O)O)NC(=O)[C@H](CC(C)C)NC(=O)[C@H](Cc1ccccc1)NC(=O)[C@@H](NC(=O)CN)C(C)C)C(=O)N[C@@H](CC(N)=O)C(=O)N[C@@H](C)C(=O)N[C@H](C(=O)N[C@@H](CC(C)C)C(=O)N[C@@H](CC(N)=O)C(=O)N1CCC[C@H]1C(=O)N[C@@H](CCCCN)C(=O)O)C(C)C [GVFLDALKKFAKGGMNAVLNPK] as the molecule, how does the MIC [1] read?
A: Its MIC is 18 µM (≈ 41.7 µg/mL).

Q: What about the MIC [2] of the same molecule?
A: The MIC was at least 100 µM.

Q: And the MIC [3]?
A: The MIC was at least 100 µM.

Q: With CC[C@H](C)[C@H](N)C(=O)N[C@@H](CC(C)C)C(=O)N1CCC[C@H]1C(=O)N[C@@H](Cc1c[nH]c2ccccc12)C(=O)N[C@@H](CCCCN)C(=O)N[C@@H](Cc1c[nH]c2ccccc12)C(=O)N1CCC[C@H]1C(=O)N[C@@H](Cc1c[nH]c2ccccc12)C(=O)N[C@@H](Cc1c[nH]c2ccccc12)C(=O)N1CCC[C@H]1C(N)=O [ILPWKWPWWP] as the molecule, how does the MIC [5] read?
A: Its MIC is 1.6 µM (≈ 2.25 µg/mL).

Q: CC[C@H](C)[C@H](N)C(=O)N[C@@H](CC(C)C)C(=O)N1CCC[C@H]1C(=O)N[C@@H](Cc1c[nH]c2ccccc12)C(=O)N[C@@H](CCCCN)C(=O)N[C@@H](Cc1c[nH]c2ccccc12)C(=O)N1CCC[C@H]1C(=O)N[C@@H](Cc1c[nH]c2ccccc12)C(N)=O [ILPWKWPW] was tested. Which MIC [5] did it give?
A: Its MIC is 6.3 µM (≈ 7.08 µg/mL).

Q: CC[C@H](C)[C@H](NC(=O)[C@H](CCC(N)=O)NC(=O)[C@H](CC(N)=O)NC(=O)[C@H](Cc1ccccc1)NC(=O)[C@@H](NC(=O)[C@H](CCC(N)=O)NC(=O)[C@H](CC(C)C)NC(=O)[C@H](CC(C)C)NC(=O)[C@@H](N)CCCCN)[C@@H](C)O)C(=O)N[C@@H](Cc1ccccc1)C(=O)N[C@@H](CCCN=C(N)N)C(=O)O [KLLQTFNQIFR] was tested. Which MIC (Streptococcus mutans) did it give?
A: Its MIC is at least 88.8 µM.

Q: With CC[C@H](C)[C@H](NC(=O)[C@@H](N)CCCN=C(N)N)C(=O)N[C@@H](CC(C)C)C(=O)N[C@@H](CCCCN)C(=O)N[C@@H](CCC(=O)O)C(=O)N[C@@H](CC(C)C)C(=O)N[C@@H](CCCCN)C(=O)N[C@@H](CC(N)=O)C(=O)N[C@@H](CC(C)C)C(=O)N[C@@H](Cc1ccccc1)C(=O)N[C@@H](CCCCN)C(=O)O [RILKELKNLFK] as the molecule, how does the MIC (Streptococcus mutans) read?
A: Its MIC is at least 178 µM.

Q: How did the MIC (Streptococcus mutans) turn out when NC(=O)[C@H](Cc1ccccc1)NC(=O)[C@H](CCCN=C(N)N)NC(=O)[C@H](CCCN=C(N)N)NC(=O)[C@H](Cc1c[nH]c2ccccc12)NC(=O)[C@H](Cc1c[nH]c2ccccc12)NC(=O)[C@H](CCCN=C(N)N)NC(=O)[C@@H](N)CCCN=C(N)N [RRWWRRF] was run?
A: Its MIC is 14.6 µM (≈ 17 µg/mL).

Q: Which MIC (Streptococcus mutans) does the source give for CC[C@H](C)[C@H](NC(=O)CNC(=O)CNC(=O)CNC(=O)[C@H](Cc1ccccc1)NC(=O)[C@H](Cc1c[nH]c2ccccc12)NC(=O)[C@H](CCCN=C(N)N)NC(=O)[C@H](Cc1c[nH]c2ccccc12)NC(=O)[C@H](CCCN=C(N)N)NC(=O)[C@H](Cc1c[nH]c2ccccc12)NC(=O)[C@@H](N)CCCN=C(N)N)C(=O)N[C@@H](CCCCN)C(=O)N[C@@H](CCC(N)=O)C(=O)N[C@@H](CC(C)C)C(=O)N[C@@H](CC(C)C)C(=O)N[C@@H](Cc1cnc[nH]1)C(=O)N[C@@H](Cc1ccccc1)C(=O)N[C@@H](Cc1ccccc1)C(=O)N[C@@H](CCC(N)=O)C(=O)N[C@@H](Cc1c[nH]c2ccccc12)C(=O)N[C@@H](CCCN=C(N)N)C(=O)N[C@@H](Cc1ccccc1)C(N)=O [RWRWRWFGGGIKQLLHFFQWRF] here?
A: The MIC was 3.76 µM (≈ 11.3 µg/mL).

Q: For CC(C)[C@H](NC(=O)CNC(=O)[C@H](CCCN=C(N)N)NC(=O)[C@H](Cc1cnc[nH]1)NC(=O)[C@H](Cc1c[nH]c2ccccc12)NC(=O)[C@H](Cc1ccccc1)NC(=O)[C@H](Cc1cnc[nH]1)NC(=O)[C@H](Cc1ccc(O)cc1)NC(=O)[C@@H](N)Cc1ccc(O)cc1)C(=O)N[C@H](C(=O)N[C@@H](CCCCN)C(=O)N[C@@H](CCCN=C(N)N)C(=O)O)[C@@H](C)O [YYHFWHRGVTKR], which MIC [6] is on record?
A: Its MIC is 30 µM (≈ 49.5 µg/mL).

Q: What about the MIC [7] of the same molecule?
A: The MIC was at least 70 µM.

Q: What about the MIC (Bacillus subtilis) of the same molecule?
A: Its MIC is at least 40 µM.

Q: What about the MIC [8] of the same molecule?
A: Its MIC is 30 µM (≈ 49.5 µg/mL).

Q: And the MIC [9]?
A: The MIC was 40 µM (≈ 66 µg/mL).

Q: What about the MIC (Escherichia coli) of the same molecule?
A: The MIC was 40 µM (≈ 66 µg/mL).

Q: And the MIC [10]?
A: Its MIC is 40 µM (≈ 66 µg/mL).

Q: And the MIC [11]?
A: The MIC was at least 40 µM.

Reference: DBAASP
